Results reported in patent US9371331B2, “Modulators of methyl modifying enzymes, compositions and uses thereof” (Constellation Pharmaceuticals, Inc., priority 2012, dated 2016).
Counter-ions that a name gives are not always drawn. Like-named read-outs stand apart in the source and are kept apart here.

Legend:
EZH2 (rPRC2) = EZH2 (rPRC2) (Homo sapiens, UniProt Q15910); assay: EZH2 assay: rPRC2, biotinylated oligonucleosomes, 3H SAM methyl transfer (FlashPlate scintillation); type: biochemical; conditions: biotinylated oligonucleosome substrate
EZH2 (rPRC2), sequence (Q15910 whole entry): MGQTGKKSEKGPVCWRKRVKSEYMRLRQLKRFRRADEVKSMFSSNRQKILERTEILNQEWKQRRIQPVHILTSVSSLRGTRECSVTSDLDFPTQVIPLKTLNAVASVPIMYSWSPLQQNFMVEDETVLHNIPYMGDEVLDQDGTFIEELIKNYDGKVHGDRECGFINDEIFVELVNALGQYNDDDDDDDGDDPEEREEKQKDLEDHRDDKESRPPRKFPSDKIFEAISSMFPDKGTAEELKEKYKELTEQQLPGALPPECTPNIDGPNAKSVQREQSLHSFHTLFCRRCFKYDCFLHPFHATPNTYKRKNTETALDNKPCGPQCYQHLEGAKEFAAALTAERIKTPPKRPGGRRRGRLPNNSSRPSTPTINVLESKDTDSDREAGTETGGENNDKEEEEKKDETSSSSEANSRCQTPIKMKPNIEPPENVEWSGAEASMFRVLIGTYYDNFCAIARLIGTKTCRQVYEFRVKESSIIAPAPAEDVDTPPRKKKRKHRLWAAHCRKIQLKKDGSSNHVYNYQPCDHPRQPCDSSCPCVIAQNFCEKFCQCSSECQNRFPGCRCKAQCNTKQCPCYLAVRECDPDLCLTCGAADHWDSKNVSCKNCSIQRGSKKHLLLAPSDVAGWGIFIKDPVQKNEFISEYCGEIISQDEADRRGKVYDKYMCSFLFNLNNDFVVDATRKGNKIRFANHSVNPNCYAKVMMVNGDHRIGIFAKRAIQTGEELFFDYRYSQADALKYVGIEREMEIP
EZH2 (rPRC2), sequence (O75530 whole entry partner): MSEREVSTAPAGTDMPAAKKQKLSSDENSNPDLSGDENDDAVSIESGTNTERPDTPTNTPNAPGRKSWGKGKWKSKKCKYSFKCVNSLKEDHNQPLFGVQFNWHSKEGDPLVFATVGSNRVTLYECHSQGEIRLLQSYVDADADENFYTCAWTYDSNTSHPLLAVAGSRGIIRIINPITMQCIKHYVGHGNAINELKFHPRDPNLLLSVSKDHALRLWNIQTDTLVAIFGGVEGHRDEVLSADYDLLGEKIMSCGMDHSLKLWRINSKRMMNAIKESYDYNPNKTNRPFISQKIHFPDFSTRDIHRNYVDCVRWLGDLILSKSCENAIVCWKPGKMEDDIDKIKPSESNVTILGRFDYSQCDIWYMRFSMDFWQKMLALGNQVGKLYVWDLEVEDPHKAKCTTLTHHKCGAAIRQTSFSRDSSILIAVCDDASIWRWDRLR
EZH2 (rPRC2), sequence (Q15022 whole entry partner): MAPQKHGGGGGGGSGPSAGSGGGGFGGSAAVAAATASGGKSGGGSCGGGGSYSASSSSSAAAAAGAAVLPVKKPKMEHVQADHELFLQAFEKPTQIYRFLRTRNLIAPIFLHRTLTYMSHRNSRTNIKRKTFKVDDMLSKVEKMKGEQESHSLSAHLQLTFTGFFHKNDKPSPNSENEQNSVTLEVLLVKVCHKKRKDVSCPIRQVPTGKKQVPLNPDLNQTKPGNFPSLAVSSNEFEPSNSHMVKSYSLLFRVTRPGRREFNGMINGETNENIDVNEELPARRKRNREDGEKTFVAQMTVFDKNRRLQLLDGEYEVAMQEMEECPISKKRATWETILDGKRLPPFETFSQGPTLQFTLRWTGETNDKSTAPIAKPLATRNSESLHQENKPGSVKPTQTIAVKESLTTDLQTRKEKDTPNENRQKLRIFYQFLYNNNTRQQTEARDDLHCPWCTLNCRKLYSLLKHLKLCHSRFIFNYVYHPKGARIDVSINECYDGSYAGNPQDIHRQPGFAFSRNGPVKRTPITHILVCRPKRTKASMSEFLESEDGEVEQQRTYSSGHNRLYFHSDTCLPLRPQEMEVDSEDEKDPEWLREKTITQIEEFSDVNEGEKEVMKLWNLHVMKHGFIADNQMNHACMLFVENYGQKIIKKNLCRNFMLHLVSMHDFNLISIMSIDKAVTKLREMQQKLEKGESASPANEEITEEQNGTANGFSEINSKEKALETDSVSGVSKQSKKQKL

Y641N EZH2 = Y641N EZH2 (Homo sapiens, UniProt Q15910, Y641N); assay: Y641N EZH2 assay: as EZH2 assay, with reconstituted H3K27Me2 oligonucleosomes as substrate; type: biochemical; conditions: Y641N EZH2 IC50, Y641N mutant EZH2, H3K27Me2 oligonucleosome substrate
Y641N EZH2, sequence (Q15910 whole entry Y641N): as the sequence (Q15910 whole entry) above, with Y641N counted along it
Y641N EZH2, sequence (O75530 whole entry partner): as the sequence (O75530 whole entry partner) above
Y641N EZH2, sequence (Q15022 whole entry partner): as the sequence (Q15022 whole entry partner) above

[1] = tested on: H3K27me3 mark in HeLa cells; assay: H3K27me3 MSD Hela Assay; type: cell-based; conditions: Homo sapiens, HeLa, 96 h, read-out: H3K27me3_MSD_HeLa_ (EC50)
Outline: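 HeLa cells treated with compound at various concentrations for 96 h at 37 °C, then lysed with high-salt extraction. H3K27me3 measured by MSD electrochemiluminescence immunoassay on total-H3 capture plates. Dose-dependent inhibition normalised to DMSO wells and fitted to curves.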

[2] = tested on: H3K27me3 mark in HeLa cells; assay: H3K27me3 Alpha Hela Assay (AlphaLISA); type: cell-based; conditions: Homo sapiens, 72 hrs, read-out: H3K27me3_Alpha_HeLa_ (EC50)
Outline: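 HeLa cells (1,000/well) were treated with ten 3-fold compound doses for 72 h at 37 °C. After histone extraction, H3K27me3 was detected by AlphaLISA (anti-K27me3 acceptor beads, biotinylated anti-H3, streptavidin donor), with viability measured on a duplicate plate. Data were normalized to DMSO and curve-fitted.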

[3] = EZH2 IC50, wild-type EZH2 (rPRC2)

SMILES	IC50 (EZH2 (rPRC2); [3]) [nM]	IC50 (Y641N EZH2) [nM]	EC50 [1] [nM]	EC50 [2] [nM]	IC50 (EZH2 (rPRC2); read-out: EZH2 IC50, wild-type EZH2 (rPRC2)) [nM]
COc1cc(C)[nH]c(=O)c1CNC(=O)c1c(C)n(C(C)C2CCNCC2)c2ccccc12 (single isomer, unassigned) [Compound 326, (R or S)—N-((4-methoxy-6-methyl-2-oxo-1,2-dihydropyridin-3-yl)methyl)-2-methyl-1-(1-(piperidin-4-yl)ethyl)-1H-indole-3-carboxamide hydrochloride]	< 100	< 100	400 to 2000	400 to 2000	–
COc1cc(C)[nH]c(=O)c1CNC(=O)c1c(C)n(C(C)C2CCOCC2)c2cc(F)ccc12 (single isomer, unassigned) [Compound 300, (R or S)-6-fluoro-N-((4-methoxy-6-methyl-2-oxo-1,2-dihydropyridin-3-yl)methyl)-2-methyl-1-(1-(tetrahydro-2H-pyran-4-yl)ethyl)-1 H-indole-3-carboxamide]	< 100	< 100	< 400	< 400	–
COc1cc(C)[nH]c(=O)c1CNC(=O)c1c(C)n(C(C)C2CCOCC2)c2ncccc12 (single isomer, unassigned) [Compound 288, (R or S)-N-((4-Methoxy-6-methyl-2-oxo-1,2-dihydropyridin-3-yl)methyl)-2-methyl-1-(1-(tetrahydro-2H-pyran-4-yl)ethyl)-1H-pyrrolo[2,3-b]pyridine-3-carboxamide]	< 100	< 100	400 to 2000	< 400	–
COc1cc(C)[nH]c(=O)c1CNC(=O)c1c(C)n(C(C)c2ccccc2)c2ccccc12 (single isomer, unassigned) [Compound 114, (R or S)N-((4-methoxy-6-methyl-2-oxo-1,2-dihydropyridin-3-yl)methyl)-2-methyl-1-(1-phenylethyl)-1H-indole-3-carboxamide]	< 100	< 100	< 400	400 to 2000	–
COc1cc(C)[nH]c(=O)c1CNC(=O)c1c(C)n(C(C)C(C)OC)c2ccccc12 (racemic) [Compound 294, (±)-N-((4-methoxy-6-methyl-2-oxo-1,2-dihydropyridin-3-yl)methyl)-1-(3-methoxybutan-2-yl)-2-methyl-1H-indole-3-carboxamide]	< 100	< 100	< 400	< 400	–
COCC(C)n1c(C)c(C(=O)NCc2c(OC)cc(C)[nH]c2=O)c2ccccc21 (single isomer, unassigned) [Compound 224, N-((4-methoxy-6-methyl-2-oxo-1,2-dihydropyridin-3-yl)methyl)-1-(1-methoxypropan-2-yl)-2-methyl-1H-indole-3-carboxamide]	–	< 100	< 400	< 400	< 100
